The target in the assay is T1, protein tyrosine phosphatase 1B (PTP1B) (Homo sapiens, UniProt P18031).
T1 sequence (P18031 1-435): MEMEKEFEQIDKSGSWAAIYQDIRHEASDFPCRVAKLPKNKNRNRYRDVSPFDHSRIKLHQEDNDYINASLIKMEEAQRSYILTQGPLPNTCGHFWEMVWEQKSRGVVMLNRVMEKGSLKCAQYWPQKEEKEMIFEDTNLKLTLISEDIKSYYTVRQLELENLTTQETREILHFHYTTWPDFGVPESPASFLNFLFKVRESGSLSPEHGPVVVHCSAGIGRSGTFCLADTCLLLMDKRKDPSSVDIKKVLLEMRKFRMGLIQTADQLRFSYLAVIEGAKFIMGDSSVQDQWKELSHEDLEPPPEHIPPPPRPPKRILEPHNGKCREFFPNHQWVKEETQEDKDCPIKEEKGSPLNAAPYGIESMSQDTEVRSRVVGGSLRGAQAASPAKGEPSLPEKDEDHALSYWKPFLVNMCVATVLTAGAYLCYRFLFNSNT
Kind of assay: Inhibitory activity against PTP1B assay. Format: biochemical.

Where only a bound is given, the exact number is not on record here.

`CC(C)=CCC[C@](C)(O[C@@H]1O[C@H](CO[C@@H]2O[C@H](CO)[C@@H](O)[C@H](O)[C@H]2O)[C@@H](O)[C@H](O)[C@H]1O)[C@H]1CC[C@]2(C)[C@@H]1[C@H](O)C[C@@H]1[C@@]3(C)CC[C@H](O[C@@H]4O[C@H](CO)[C@@H](O)[C@H](O)[C@H]4O[C@@H]4O[C@H](CO)[C@@H](O)[C@H](O)[C@H]4O)C(C)(C)[C@@H]3CC[C@]12C` [Compound 5, ginsenoside-Rb1] gave an IC50 of more than 100 µM.
With `CC(C)=CCC[C@](C)(O[C@@H]1O[C@H](CO[C@@H]2O[C@@H](CO)[C@H](O)[C@H]2O)[C@@H](O)[C@H](O)[C@H]1O)[C@H]1CC[C@]2(C)[C@@H]1[C@H](O)C[C@@H]1[C@@]3(C)CC[C@H](O[C@@H]4O[C@H](CO)[C@@H](O)[C@H](O)[C@H]4O[C@@H]4O[C@H](CO)[C@@H](O)[C@H](O)[C@H]4O)C(C)(C)[C@@H]3CC[C@]12C` [Compound 8, ginsenoside-Rc] the figure was more than 100 µM; with `CC(C)=CCC[C@](C)(O[C@@H]1O[C@H](CO)[C@@H](O)[C@H](O)[C@H]1O)[C@H]1CC[C@]2(C)[C@@H]1[C@H](O)C[C@@H]1[C@@]3(C)CC[C@H](O[C@@H]4O[C@H](CO)[C@@H](O)[C@H](O)[C@H]4O[C@@H]4O[C@H](CO)[C@@H](O)[C@H](O)[C@H]4O)C(C)(C)[C@@H]3CC[C@]12C` [Compound 9, ginsenoside-Rd], more than 100 µM; with `CC(C)=CCC[C@](C)(O[C@@H]1O[C@H](CO)[C@@H](O)[C@H](O)[C@H]1O)[C@H]1CC[C@]2(C)[C@@H]1[C@H](O)C[C@@H]1[C@@]3(C)CC[C@H](O)C(C)(C)[C@@H]3[C@@H](O)C[C@]12C` [Compound 14, ginsenoside-F1], more than 100 µM.
As for `CC1(C)CCC[C@](C)([C@H]2CC[C@]3(C)[C@@H]2[C@H](O)C[C@@H]2[C@@]4(C)CC[C@H](O)C(C)(C)[C@@H]4CC[C@]23C)O1` [Compound 18, panaxadiol], the figure is more than 100 µM.

(Values after paper PMC3915329 (Journal of Ginseng Research, 2013).)
